Key:
Erigeron canadensis [1] = test: Herbicidal activity against compound-resistant Conyza canadensis (horseweed) isolate 1 under greenhouse condition at 9 kg ae/ha measured 21 days post treatment relative to control; format: functional
Erigeron canadensis [2] = test: Herbicidal activity against compound-resistant Conyza canadensis (horseweed) isolate 1 under greenhouse condition at 2.52 kg ae/ha measured 14 days post treatment relative to control; format: functional
Erigeron canadensis [3] = test: Herbicidal activity against compound-resistant Conyza canadensis (horseweed) isolate 1 under greenhouse condition at 0.45 kg ae/ha measured 7 days post treatment relative to control; format: functional
Erigeron canadensis [4] = test: Herbicidal activity against compound-resistant Conyza canadensis (horseweed) isolate 2 under greenhouse condition at 1.68 kg ae/ha measured 7 days post treatment relative to control; format: functional
Erigeron canadensis [5] = test: Herbicidal activity against Conyza canadensis (horseweed) under greenhouse condition assessed as decrease in fresh weight at 0.05 kg ae/ha measured 21 days post treatment relative to untreated control; format: functional
Erigeron canadensis [6] = test: Herbicidal activity against compound-resistant Conyza canadensis (horseweed) isolate 1 under greenhouse condition at 3.36 kg ae/ha measured 7 days post treatment relative to control; format: functional
Erigeron canadensis [7] = test: Herbicidal activity against compound-resistant Conyza canadensis (horseweed) isolate 2 under greenhouse condition assessed as fresh weight at 3.36 kg ae/ha measured 21 days post treatment relative to untreated control
Erigeron canadensis [8] = test: Herbicidal activity against compound-resistant Conyza canadensis (horseweed) isolate 1 under greenhouse condition at 3.36 kg ae/ha measured 14 days post treatment relative to control; format: functional
Erigeron canadensis [9] = test: Herbicidal activity against compound-resistant Conyza canadensis (horseweed) isolate 1 under greenhouse condition at 0.45 kg ae/ha measured 14 days post treatment relative to control; format: functional
Erigeron canadensis [10] = test: Herbicidal activity against compound-resistant Conyza canadensis (horseweed) isolate 2 under greenhouse condition at 1.68 kg ae/ha measured 21 days post treatment relative to control; format: functional
Erigeron canadensis [11] = test: Herbicidal activity against compound-sensitive Conyza canadensis (horseweed) under greenhouse condition assessed as fresh weight at 0.45 kg ae/ha measured 21 days post treatment relative to untreated control
Erigeron canadensis [12] = test: Herbicidal activity against compound-sensitive Conyza canadensis (horseweed) under greenhouse condition at 2.52 kg ae/ha measured 21 days post treatment relative to control; format: functional
Erigeron canadensis [13] = test: Herbicidal activity against compound-sensitive Conyza canadensis (horseweed) under greenhouse condition at 0.84 kg ae/ha measured 14 days post treatment relative to control; format: functional
Erigeron canadensis [14] = test: Herbicidal activity against compound-resistant Conyza canadensis (horseweed) isolate 2 under greenhouse condition at 2.52 kg ae/ha measured 7 days post treatment relative to control; format: functional
Erigeron canadensis [15] = test: Herbicidal activity against compound-sensitive Conyza canadensis (horseweed) under greenhouse condition at 0.45 kg ae/ha measured 7 days post treatment relative to control; format: functional

Compound: O=C(O)CNCP(=O)(O)O [GLYPHOSATE]
- Activity (Erigeron canadensis [1]): 80%
- Activity (Erigeron canadensis [2]): 45%
- Activity (Erigeron canadensis [3]): 10%
- Activity (Erigeron canadensis [4]): 50%
- Activity (Erigeron canadensis [5]): 4 g
- Activity (Erigeron canadensis [6]): 73%
- level, % of control (Erigeron canadensis [7]): 18%
- Activity (Erigeron canadensis [8]): 58%
- Activity (Erigeron canadensis [9]): 8%
- Activity (Erigeron canadensis [10]): 50%
- level, % of control (Erigeron canadensis [11]): 30%
- Activity (Erigeron canadensis [12]): 99%
- Activity (Erigeron canadensis [13]): 63%
- Activity (Erigeron canadensis [14]): 53%
- Activity (Erigeron canadensis [15]): 40%
